From PMC4364556, “Comparative Distribution and In Vitro Activities of the Urotensin II-Related Peptides URP1 and URP2 in Zebrafish: Evidence for Their Colocalization in Spinal Cerebrospinal Fluid-Contacting Neurons” (PLoS ONE, 2015)
Where a SMILES comes first, the peptide text is derived from it. Bridges are numbered along the chain shown (N, C = ends).

Target: T1, human UII receptor (hUT) (Homo sapiens, UniProt Q9UKP6)
T1 construct: expressed in transfected cells
T1 sequence (Q9UKP6 1-389): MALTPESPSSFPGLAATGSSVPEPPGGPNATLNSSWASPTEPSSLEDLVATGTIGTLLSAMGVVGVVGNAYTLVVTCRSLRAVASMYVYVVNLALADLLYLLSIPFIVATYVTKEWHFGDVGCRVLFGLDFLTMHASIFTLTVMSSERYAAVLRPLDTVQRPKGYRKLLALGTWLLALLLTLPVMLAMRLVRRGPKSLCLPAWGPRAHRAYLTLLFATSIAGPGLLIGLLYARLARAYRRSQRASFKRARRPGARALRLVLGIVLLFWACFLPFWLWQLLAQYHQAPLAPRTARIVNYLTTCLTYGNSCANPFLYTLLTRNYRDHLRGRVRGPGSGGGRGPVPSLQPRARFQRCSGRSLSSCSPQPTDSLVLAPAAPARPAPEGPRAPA
Test: Intracellular calcium mobilization assay (hUT-CHO cells)
Assay type: cell-based
Details: for EC50: agonist, CHO cells stably transfected with human UT, Fluo-4 AM, 37°C, fluorescence 485/525 nm, 180 sec, peptides 10^-12 to 10^-6 M, peak fluorescence, four-parameter logistic, mean ± SEM of 7–13 independent experiments, read-out: pEC50, intracellular calcium mobilization (converted); for comparison of potency of URP1 and URP2 to activate the hUT: URP1 vs URP2; for times less potent than hUII to mobilize intracellular calcium: compared with hUII pEC50 = […]; for efficacy, increase in intracellular calcium: percentages of the baseline (baseline normalized to 100%), Fluo-4 AM peak fluorescence, similar to efficacies evoked by hUII and mURP, approximate ('around')
Procedure: CHO cells stably transfected with the human UII receptor (hUT-CHO) (Chatenet et al. 2004) were plated at a density of 4 x 10^4 cells/well in flat clear bottom black 96-well plates. Measures of intracellular calcium mobilization were performed as previously described (Dubessy et al. 2008) with slight modifications. Briefly, after 24 h in culture, cells were incubated for 1 h in a humidified incubator (37°C, 5% CO2) with 2 μM Fluo-4 acetoxymethyl ester (AM) calcium dye (Life Technologies) in Hank’s Buffer Saline Solution (HBSS; Life Technologies) buffered with 5 mM HEPES and supplemented with 2.5 mM probenecid (Sigma-Aldrich, Saint-Quentin Fallavier, France). Cells were washed twice with HBSS/HEPES/probenecid to remove Fluo-4 AM from the incubation medium and incubated in 150 μl of the same medium at 37°C for 15 min. Fluorescence was recorded using a Flexstation 3 fluorescence plate reader system (Molecular Devices, Saint-Grégoire, France) during 180 sec with an excitation wavelength of 485 nm, an emission wavelength of 525 nm and a cutoff filter of 515 nm. After 18 sec recording in basal conditions, 50 μl of graded concentration (10^-12 to 10^-6 M) of different peptides (4-fold final concentration) was added to the incubation medium with the built-in 8 channel pipettor at a rate of 47 μl/sec to assess their agonistic activity. After subtraction of mean fluorescence background from control wells without Fluo-4 AM, baseline was normalized to 100% and fluorescence peak values were determined for each concentration of peptide. Potency (EC50) and efficacy (Emax) were calculated with the Prism 5.0 software (GraphPad Software In., La Jolla, CA, USA) using a four-parameter logistic equation to fit peak fluorescence data.
For intracellular calcium mobilization assays, results from 7–13 independent experiments were expressed as mean ± SEM of Log(EC50) and plotted with box and whiskers. The normality of each data set was verified with the Shapiro-Wilk’s test and a one-way ANOVA test followed by a Tukey’s multiple comparison test to compare Log(EC50) between each peptide. Differences were considered significant where P<0.05.

[1] = hUT-CHO cells, one-way ANOVA followed by Tukey's test on Log(EC50)

EC50 [nM]	comparison of potency of URP1 and URP2 to activate the hUT [1]	times less potent than hUII to mobilize intracellular calcium (hUT-CHO cells) [times]	efficacy, increase in intracellular calcium (hUT-CHO cells)	potency compared with the other tested peptides (hUT-CHO cells, vs hUII, URP1 and URP2, one-way ANOVA followed by Tukey's test on Log(EC50), P<0.05)	SMILES
10.2	equipotent to activate the hUT	28	200–250%	–	CC(C)[C@H](NC(=O)[C@@H]1CSSC[C@H](NC(=O)[C@H](C)N)C(=O)N[C@@H](Cc2ccccc2)C(=O)N[C@@H](Cc2c[nH]c3ccccc23)C(=O)N[C@@H](CCCCN)C(=O)N[C@@H](Cc2ccc(O)cc2)C(=O)N1)C(=O)N[C@H](C(=O)N[C@@H](CC(N)=O)C(=O)O)[C@@H](C)O [URP1] (H-ACFWKYCVTN-OH; disulfide 2-7)
2.45	–	–	–	intermediate potency	CC(C)[C@H](NC(=O)[C@@H]1CSSC[C@H](NC(=O)[C@H](C)N)C(=O)N[C@@H](Cc2ccccc2)C(=O)N[C@@H](Cc2c[nH]c3ccccc23)C(=O)N[C@@H](CCCCN)C(=O)N[C@@H](Cc2ccc(O)cc2)C(=O)N1)C(=O)O [mURP, reference compound]
30.2	equipotent to activate the hUT	83	200–250%	–	CC(C)[C@H](N)C(=O)N[C@H]1CSSC[C@@H](C(=O)N[C@@H](CO)C(=O)N[C@@H](CCC(N)=O)C(=O)N[C@@H](CC(N)=O)C(=O)O)NC(=O)[C@H](Cc2ccc(O)cc2)NC(=O)[C@H](CCCCN)NC(=O)[C@H](Cc2c[nH]c3ccccc23)NC(=O)[C@H](Cc2ccccc2)NC1=O [URP2] (H-VCFWKYCSQN-OH; disulfide 2-7)
